From patent US20260345619A1 (Principia Biopharma Inc., priority 2023, published 2026)

Assay: Pre-bronchodilator FEV1 and percent predicted FEV1 by spirometry, change from baseline
Type: in vivo, human
Settings: for Change from baseline in pre-bronchodilator FEV1, LS Mean (SE) / Change from baseline in pre-bronchodilator FEV1, LS Mean Diff vs. placebo (95% CI) / Change from baseline in pre-bronchodilator FEV1, Mean (SD): EOT (Week 12); for FEV1 change / improvement (in words): following ICS/LABA withdrawal, both cohorts
Method: Spirometry is a standard test to measure patients' lung function.
The primary endpoint was the proportion of patients with LOAC. The key secondary endpoint for the study was change in pre-bronchodilator FEV1 from baseline at EOT.
Reversibility is defined as an increase of the absolute FEV1 after administration of bronchodilator and is measured by spirometry as postbronchodilator increase in FEV1 in percent of the prebronchodilator FEV1. After spirometry for measuring prebronchodilator FEV1, participants were to receive 2-4 puffs of albuterol/salbutamol or levalbuterol/levosalbutamol from a primed MDI. The postbronchodilator spirometry may have been repeated several times within 30 minutes after administration of bronchodilator. Alternatively, and only if it was consistent with usual office practice (to be documented), reversibility may have been performed using inhalation of nebulized albuterol/salbutamol or levalbuterol/levosalbutamol.
Secondary endpoints included pre-bronchodilator FEV1 change from baseline at EOT, ACQ-5 score change from baseline, and AQLQ score change from baseline. Other secondary and exploratory endpoints are described in Table 2.

[1] = 400 mg TID, Week 12, baseline FeNO ≥35 ppb
[2] = 400 mg TID, Week 12, baseline IgA <2190 mg/L (median)
[3] = 400 mg TID, Week 12, baseline IgA ≥2190 mg/L (median)
[4] = 400 mg TID, Week 12, baseline IgE <100 IU/mL
[5] = 400 mg TID, Week 12, baseline IgE <121.85 IU/mL (median)
[6] = 400 mg TID, Week 12, baseline IgE ≥100 IU/mL
[7] = 400 mg TID, Week 12, baseline IgE ≥121.85 IU/mL (median)
[8] = 400 mg TID, Week 12, baseline blood eosinophils <0.15 10^9/L
[9] = 400 mg TID, Week 12, baseline blood eosinophils <0.3 10^9/L
[10] = 400 mg TID, Week 12, baseline blood eosinophils ≥0.15-<0.3 10^9/L
[11] = 400 mg TID, Week 12, baseline blood eosinophils ≥0.3 10^9/L
[12] = 400 mg TID, Week 12, baseline percent predicted FEV1 <77% (median)
[13] = 400 mg TID, Week 12, baseline percent predicted FEV1 <80%
[14] = 400 mg TID, Week 12, baseline percent predicted FEV1 ≥77% (median)
[15] = 400 mg TID, Week 12, baseline percent predicted FEV1 ≥80%
[16] = 400 mg TID, Week 12, baseline weight ≥60-<90 kg
[17] = 400 mg TID, Week 12, baseline weight ≥90 kg
[18] = 400 mg TID, Week 12, smoking history Former
[19] = 400 mg TID, Week 12, smoking history Never
[20] = 400 mg TID, low EOS (<0.15) and low FeNO (<25), mITT
[21] = 400 mg TID, Week 2, observed/LOCF imputed, mITT
[22] = 400 mg TID, Week 4, observed/LOCF imputed, mITT
[23] = 400 mg TID, Week 6, observed/LOCF imputed, mITT
[24] = 400 mg TID, Week 8, observed/LOCF imputed, mITT
[25] = 400 mg TID, Week 10, observed/LOCF imputed, mITT
[26] = 400 mg TID, Week 12 (EOT), MMRM supplementary analysis, mITT
[27] = 400 mg TID, Week 12 (EOT), MMRM, mITT
[28] = 400 mg TID, Week 12, observed/LOCF imputed, mITT
[29] = 400 mg TID, Week 12, reduced model, mITT

Question: Which results are given for `CC(C)(C=C(C#N)C(=O)N1CCC[C@@H](n2nc(-c3ccc(Oc4ccccc4)cc3F)c3c(N)ncnc32)C1)N1CCN(C2COC2)CC1` (mixture of isomers) [rilzabrutinib, (R)-2-[3-[4-amino-3-(2-fluoro-4-phenoxy-phenyl)pyrazolo[3,4-d]pyrimidin-1-yl]piperidine-1-carbonyl]-4-methyl-4-[4-(oxetan-3-yl)piperazin-1-yl]pent-2-enenitrile]?
Answer: Pre-bronchodilator FEV1 change from baseline, LS Mean Diff vs. placebo [1]: -0.12 L; Pre-bronchodilator FEV1 change from baseline, Mean [1]: -0.07 L; Pre-bronchodilator FEV1 change from baseline, LS Mean [2]: -0.12 L; Pre-bronchodilator FEV1 change from baseline, LS Mean Diff vs. placebo [2]: -0.09 L; Pre-bronchodilator FEV1 change from baseline, Mean [2]: -0.12 L; Pre-bronchodilator FEV1 change from baseline, LS Mean [3]: -0.15 L; Pre-bronchodilator FEV1 change from baseline, LS Mean Diff vs. placebo [3]: -0.09 L; Pre-bronchodilator FEV1 change from baseline, Mean [3]: -0.17 L; Pre-bronchodilator FEV1 change from baseline, LS Mean [4]: -0.10 L; Pre-bronchodilator FEV1 change from baseline, LS Mean Diff vs. placebo [4]: -0.11 L; Pre-bronchodilator FEV1 change from baseline, Mean [4]: -0.20 L; Pre-bronchodilator FEV1 change from baseline, LS Mean [5]: -0.16 L; Pre-bronchodilator FEV1 change from baseline, LS Mean Diff vs. placebo [5]: -0.08 L; Pre-bronchodilator FEV1 change from baseline, Mean [5]: -0.17 L; Pre-bronchodilator FEV1 change from baseline, LS Mean [6]: -0.13 L; Pre-bronchodilator FEV1 change from baseline, LS Mean Diff vs. placebo [6]: -0.07 L; Pre-bronchodilator FEV1 change from baseline, Mean [6]: -0.12 L; Pre-bronchodilator FEV1 change from baseline, LS Mean [7]: -0.33 L; Pre-bronchodilator FEV1 change from baseline, LS Mean Diff vs. placebo [7]: -0.11 L; Pre-bronchodilator FEV1 change from baseline, Mean [7]: -0.13 L; Pre-bronchodilator FEV1 change from baseline, LS Mean [8]: -0.17 L; Pre-bronchodilator FEV1 change from baseline, LS Mean Diff vs. placebo [8]: -0.05 L; Pre-bronchodilator FEV1 change from baseline, Mean [8]: -0.17 L; Pre-bronchodilator FEV1 change from baseline, LS Mean [9]: -0.13 L; Pre-bronchodilator FEV1 change from baseline, LS Mean Diff vs. placebo [9]: -0.05 L; Pre-bronchodilator FEV1 change from baseline, Mean [9]: -0.15 L; Pre-bronchodilator FEV1 change from baseline, LS Mean [10]: -0.04 L; Pre-bronchodilator FEV1 change from baseline, LS Mean Diff vs. placebo [10]: -0.04 L; Pre-bronchodilator FEV1 change from baseline, Mean [10]: -0.10 L; Pre-bronchodilator FEV1 change from baseline, LS Mean [11]: -0.16 L; Pre-bronchodilator FEV1 change from baseline, LS Mean Diff vs. placebo [11]: -0.20 L; Pre-bronchodilator FEV1 change from baseline, Mean [11]: -0.16 L; Pre-bronchodilator FEV1 change from baseline, LS Mean [12]: -0.03 L; Pre-bronchodilator FEV1 change from baseline, LS Mean Diff vs. placebo [12]: -0.04 L; Pre-bronchodilator FEV1 change from baseline, Mean [12]: -0.10 L; Pre-bronchodilator FEV1 change from baseline, LS Mean [13]: -0.09 L; Pre-bronchodilator FEV1 change from baseline, LS Mean Diff vs. placebo [13]: -0.08 L; Pre-bronchodilator FEV1 change from baseline, Mean [13]: -0.13 L; Pre-bronchodilator FEV1 change from baseline, LS Mean [14]: -0.21 L; Pre-bronchodilator FEV1 change from baseline, LS Mean Diff vs. placebo [14]: -0.13 L; Pre-bronchodilator FEV1 change from baseline, Mean [14]: -0.19 L; Pre-bronchodilator FEV1 change from baseline, LS Mean [15]: -0.20 L; Pre-bronchodilator FEV1 change from baseline, LS Mean Diff vs. placebo [15]: -0.11 L; Pre-bronchodilator FEV1 change from baseline, Mean [15]: -0.17 L; Pre-bronchodilator FEV1 change from baseline, LS Mean [16]: -0.13 L; Pre-bronchodilator FEV1 change from baseline, LS Mean Diff vs. placebo [16]: -0.07 L; Pre-bronchodilator FEV1 change from baseline, Mean [16]: -0.15 L; Pre-bronchodilator FEV1 change from baseline, LS Mean [17]: -0.15 L; Pre-bronchodilator FEV1 change from baseline, LS Mean Diff vs. placebo [17]: -0.05 L; Pre-bronchodilator FEV1 change from baseline, Mean [17]: -0.17 L; Pre-bronchodilator FEV1 change from baseline, LS Mean (400 mg TID, Week 12, female): -0.11 L; Pre-bronchodilator FEV1 change from baseline, LS Mean Diff vs. placebo (400 mg TID, Week 12, female): -0.09 L; Pre-bronchodilator FEV1 change from baseline, Mean (400 mg TID, Week 12, female): -0.14 L; Pre-bronchodilator FEV1 change from baseline, LS Mean (400 mg TID, Week 12, male): -0.15 L; Pre-bronchodilator FEV1 change from baseline, LS Mean Diff vs. placebo (400 mg TID, Week 12, male): -0.09 L; Pre-bronchodilator FEV1 change from baseline, Mean (400 mg TID, Week 12, male): -0.16 L; Pre-bronchodilator FEV1 change from baseline, LS Mean [18]: -0.12 L; Pre-bronchodilator FEV1 change from baseline, LS Mean Diff vs. placebo [18]: -0.05 L; Pre-bronchodilator FEV1 change from baseline, Mean [18]: -0.21 L; Pre-bronchodilator FEV1 change from baseline, LS Mean [19]: -0.13 L; Pre-bronchodilator FEV1 change from baseline, LS Mean Diff vs. placebo [19]: -0.09 L; Pre-bronchodilator FEV1 change from baseline, Mean [19]: -0.15 L; Difference vs. placebo, LS mean change in pre-bronchodilator FEV1 (L) at Week 12 (400 mg TID, 95% CI −0.21, 0.03, p=0.1523): -0.09 L; Change from baseline in pre-bronchodilator FEV1, LS Mean (SE) (400 mg TID, all others, mITT): -0.09 L; Change from baseline in pre-bronchodilator FEV1, LS Mean Diff vs. placebo (95% CI) (400 mg TID, all others, mITT): -0.07 L; Change from baseline in pre-bronchodilator FEV1, Mean (SD) (400 mg TID, all others, mITT, n=30): -0.11 L; Change from baseline in pre-bronchodilator FEV1, LS Mean (SE) [20]: -0.20 L; Change from baseline in pre-bronchodilator FEV1, LS Mean Diff vs. placebo (95% CI) [20]: -0.14 L; Change from baseline in pre-bronchodilator FEV1, Mean (SD) (400 mg TID, low EOS (<0.15) and low FeNO (<25), mITT, n=16): -0.24 L; LS Mean change from baseline in pre-bronchodilator FEV1 (L) at Week 12 (400 mg TID, N=64, mITT): −0.13 (0.05) L; Pre-bronchodilator FEV1, mean [21]: 2.47 L; Pre-bronchodilator FEV1, median [21]: 2.37 L; Pre-bronchodilator FEV1 change from baseline, LS Mean [21]: -0.05 L; Pre-bronchodilator FEV1 change from baseline, LS Mean Diff vs. placebo [21]: -0.04 L; Pre-bronchodilator FEV1 change from baseline, Mean [21]: -0.04 L; Pre-bronchodilator FEV1 change from baseline, median [21]: -0.02 L; Pre-bronchodilator FEV1, mean [22]: 2.58 L; Pre-bronchodilator FEV1, median [22]: 2.50 L; Pre-bronchodilator FEV1 change from baseline, LS Mean [22]: -0.01 L; Pre-bronchodilator FEV1 change from baseline, LS Mean Diff vs. placebo [22]: 0.05 L; Pre-bronchodilator FEV1 change from baseline, Mean [22]: 0.02 L; Pre-bronchodilator FEV1 change from baseline, median [22]: -0.01 L; Pre-bronchodilator FEV1, mean [23]: 2.52 L; Pre-bronchodilator FEV1, median [23]: 2.37 L; Pre-bronchodilator FEV1 change from baseline, LS Mean [23]: -0.07 L; Pre-bronchodilator FEV1 change from baseline, LS Mean Diff vs. placebo [23]: 0.04 L; Pre-bronchodilator FEV1 change from baseline, Mean [23]: -0.07 L; Pre-bronchodilator FEV1 change from baseline, median [23]: -0.09 L; Pre-bronchodilator FEV1, mean [24]: 2.41 L; Pre-bronchodilator FEV1, median [24]: 2.38 L; Pre-bronchodilator FEV1 change from baseline, LS Mean [24]: -0.07 L; Pre-bronchodilator FEV1 change from baseline, LS Mean Diff vs. placebo [24]: 0.03 L; Pre-bronchodilator FEV1 change from baseline, Mean [24]: -0.12 L; Pre-bronchodilator FEV1 change from baseline, median [24]: -0.10 L; Pre-bronchodilator FEV1, mean [25]: 2.53 L; Pre-bronchodilator FEV1, median [25]: 2.50 L; Pre-bronchodilator FEV1 change from baseline, LS Mean [25]: -0.09 L; Pre-bronchodilator FEV1 change from baseline, LS Mean Diff vs. placebo [25]: 0.00 L; Pre-bronchodilator FEV1 change from baseline, Mean [25]: -0.10 L; Pre-bronchodilator FEV1 change from baseline, median [25]: -0.09 L; Change from baseline in pre-bronchodilator FEV1, Mean [26]: -0.14 L; Change from baseline in pre-bronchodilator FEV1, Median [26]: -0.09 L; Pre-bronchodilator FEV1, Mean [26]: 2.46 L; Pre-bronchodilator FEV1, Median [26]: 2.40 L; Change from baseline in pre-bronchodilator FEV1, LS Mean [27]: -0.16 L; Change from baseline in pre-bronchodilator FEV1, LS Mean diff vs. placebo [27]: -0.08 L; Change from baseline in pre-bronchodilator FEV1, Mean [28]: -0.15 L; Change from baseline in pre-bronchodilator FEV1, Median [28]: -0.12 L; Pre-bronchodilator FEV1, Mean [28]: 2.43 L; Pre-bronchodilator FEV1, Median [28]: 2.39 L; Pre-bronchodilator FEV1, mean [28]: 2.43 L; Pre-bronchodilator FEV1, median [28]: 2.39 L; Pre-bronchodilator FEV1 change from baseline, LS Mean [28]: -0.13 L; Pre-bronchodilator FEV1 change from baseline, LS Mean Diff vs. placebo [28]: -0.09 L; Pre-bronchodilator FEV1 change from baseline, Mean [28]: -0.15 L; Pre-bronchodilator FEV1 change from baseline, median [28]: -0.12 L; Change from baseline in pre-bronchodilator FEV1, LS Mean [29]: -0.13 L; Change from baseline in pre-bronchodilator FEV1, LS Mean diff vs. placebo [29]: -0.09 L; FEV1 change / improvement (in words): did not exhibit any change in FEV1; FEV1 change / improvement (in words) (listed as Rilzabrutinib): not associated with an improvement in FEV1 values
